Reference: patent US20100104659A1, “BENZOPYRANOPYRAZOLES” (priority 2006, published 2010)

What follows are molecules tested on RKO human colon adenocarcinoma cells (RKOp27 subclone), proliferating (assay: Alamar Blue cell viability assay, RKO p27 uninduced (proliferating)). Conditions: RKOp27, 72 h, read-out: −log EC50 [mol/l] RKO p27 uninduced (proliferating), anti-proliferative/cytotoxic activity (converted).
Description: The anti-proliferative/cytotoxic activity of the compounds described herein can be tested on subclones of RKO human colon adenocarcinoma cells (Schmidt et al., Oncogene 19, 2423-2429; 2000) using the Alamar Blue cell viability assay (described in O'Brien et al. Eur J Biochem 267, 5421-5426, 2000). The compounds are dissolved as 10 mM solutions in DMSO and subsequently diluted in semi-logarithmic steps. DMSO dilutions are further diluted 1:100 into Dulbecco's modified Eagle's medium (DMEM) containing 10% fetal calf serum to a final concentration twice as much as the final concentration in the test. RKO subclones are seeded into 96 well flat bottom plates at a density of 4000 cells per well in a volume of 50 μl per well. 24 hours after seeding the 50 μl each of the compound dilutions in DMEM medium are added into each well of the 96 well plate. Each compound dilution is tested as triplicates. Wells containing untreated control cells are filled with 50 μl DMEM medium containing 1% DMSO. The cells are then incubated with the substances for 72 hours at 37° C. in a humidified atmosphere containing 5% carbon dioxide. To determine the viability of the cells, 10 μl of an Alamar Blue solution (Biosource) are added and the fluorescence is measured at an extinction of 544 nm and an emission of 590 nm. For the calculation of the cell viability the emission value from untreated cells is set as 100% viability and the emission rates of treated cells are set in relation to the values of untreated cells. Viabilities are expressed as % values. The Graphpad Prism program (GraphPad Software, Inc) is used for the calculation of EC50 values for anti-proliferative/cytotoxic activity out of the obtained dose-response curves.
Each compound dilution is tested as triplicates. Wells containing untreated control cells are filled with 50 μl DMEM medium containing 1% DMSO. The cells are then incubated with the substances for 72 hours at 37° C. in a humidified atmosphere containing 5% carbon dioxide. To determine the viability of the cells, 10 μl of an Alamar Blue solution (Biosource) are added and the fluorescence is measured at an extinction of 544 nm and an emission of 590 nm. For the calculation of the cell viability the emission value from untreated cells is set as 100% viability and the emission rates of treated cells are set in relation to the values of untreated cells. Viabilities are expressed as % values. The Graphpad Prism program is used for the calculation of EC50 values out of the obtained dose-response curves. Viability is compared of proliferating cells grown in the absence of the inducer Ponasterone A, versus viability of cells arrested by the expression of ectopic p27Kip1 induced by Ponasterone A.

Row | SMILES | EC50
1 | CN(CCN1CCCCC1)C(=O)N1N=C2c3cc(F)ccc3OC[C@H]2[C@H]1c1ccccc1 (racemic) [Example 36, (3SR,3aSR)-8-Fluoro-3-phenyl-3a,4-dihydro-3H-chromeno[4,3-c]pyrazole-2-carboxylic acid methyl-(2-piperidin-1-yl-ethyl)-amide] | 100 to 1000 nM
2 | CC(C)CNCCCN(C)C(=O)N1N=C2c3cc(F)ccc3OC[C@H]2[C@H]1c1ccccc1 (racemic) [Example 42, (3SR,3aSR)-8-Fluoro-3-phenyl-3a,4-dihydro-3H-chromeno[4,3-c]pyrazole-2-carboxylic acid (3-isobutylamino-propyl)-methyl-amide] | 100 to 1000 nM
3 | CN(C)C(=O)N1N=C2c3cc(F)ccc3OC[C@H]2[C@@H]1c1cccc(O)c1 (single isomer, unassigned) [Example 2b, (−)-cis-8-Fluoro-3-(3-hydroxy-phenyl)-3a,4-dihydro-3H-chromeno[4,3-c]pyrazole-2-carboxylic acid dimethylamide] | ≤ 100 nM
4 | CCN(CCO)CCCN(C)C(=O)N1N=C2c3cc(F)ccc3OC[C@@H]2[C@@H]1c1ccccc1 (racemic) [Example 59, (3RS,3aRS)-8-Fluoro-3-phenyl-3a,4-dihydro-3H-chromeno[4,3-c]pyrazole-2-carboxylic acid {3-[ethyl-(2-hydroxy-ethyl)-amino]-propyl}-methyl-amide] | ≤ 100 nM
5 | CCNCCN(C)C(=O)N1N=C2c3cc(F)ccc3OC[C@H]2[C@H]1c1ccccc1 (racemic) [Example 62, (3SR,3aSR)-8-Fluoro-3-phenyl-3a,4-dihydro-3H-chromeno[4,3-c]pyrazole-2-carboxylic acid (2-ethylamino-ethyl)-methyl-amide] | 100 to 1000 nM
6 | CC(C)NCCN(C)C(=O)N1N=C2c3cc(F)ccc3OC[C@H]2[C@H]1c1ccccc1 (racemic) [Example 39, (3SR,3aSR)-8-Fluoro-3-phenyl-3a,4-dihydro-3H-chromeno[4,3-c]pyrazole-2-carboxylic acid (2-isopropylamino-ethyl)-methyl-amide] | ≤ 100 nM
7 | C=CCNCCN(C)C(=O)N1N=C2c3cc(F)ccc3OC[C@H]2[C@H]1c1ccccc1 (racemic) [Example 51, (3SR,3aSR)-8-Fluoro-3-phenyl-3a,4-dihydro-3H-chromeno[4,3-c]pyrazole-2-carboxylic acid (2-allylamino-ethyl)-methyl-amide] | 100 to 1000 nM
8 | C#CCN(C)CCN(C)C(=O)N1N=C2c3cc(F)ccc3OC[C@H]2[C@H]1c1ccccc1 (racemic) [Example 64, (3SR,3aSR)-8-Fluoro-3-phenyl-3a,4-dihydro-3H-chromeno[4,3-c]pyrazole-2-carboxylic acid methyl-[2-(methyl-prop-2-ynyl-amino)-ethyl]-amide] | 100 to 1000 nM
9 | CN(C)CCN(C)C(=O)N1N=C2c3cc(F)ccc3OC[C@@H]2[C@@H]1c1cccc(O)c1 (racemic) [Example 4, (3RS,3aRS)-8-Fluoro-3-(3-hydroxy-phenyl)-3a,4-dihydro-3H-chromeno[4,3-c]pyrazole-2-carboxylic acid (2-dimethylamino-ethyl)-methyl-amide] | ≤ 100 nM
10 | CC(C)CN(C)C(=O)N1N=C2c3cc(F)ccc3OC[C@@H]2[C@@H]1c1ccccc1 (racemic) [Example 12, (3RS,3aRS)-8-Fluoro-3-phenyl-3a,4-dihydro-3H-chromeno[4,3-c]pyrazole-2-carboxylic acid isobutyl-methyl-amide] | 100 to 1000 nM
11 | CNCCN(C)C(=O)N1N=C2c3cc(F)ccc3OC[C@@H]2[C@@H]1c1ccccc1 (racemic) [Example 23, (3RS,3aRS)-8-Fluoro-3-phenyl-3a,4-dihydro-3H-chromeno[4,3-c]pyrazole-2-carboxylic acid methyl-(2-methylamino-ethyl)-amide] | 100 to 1000 nM
12 | C=CCNCCCN(C)C(=O)N1N=C2c3cc(F)ccc3OC[C@H]2[C@H]1c1ccccc1 (racemic) [Example 52, (3SR,3aSR)-8-Fluoro-3-phenyl-3a,4-dihydro-3H-chromeno[4,3-c]pyrazole-2-carboxylic acid (3-allylamino-propyl)-methyl-amide] | 100 to 1000 nM
13 | CN(CCO)CCCN(C)C(=O)N1N=C2c3cc(F)ccc3OC[C@H]2[C@H]1c1ccccc1 (racemic) [Example 50, (3SR,3aSR)-8-Fluoro-3-phenyl-3a,4-dihydro-3H-chromeno[4,3-c]pyrazole-2-carboxylic acid {3-[(2-hydroxy-ethyl)-methyl-amino]-propyl}-methyl-amide] | ≤ 100 nM
14 | CN(C(=O)N1N=C2c3cc(F)ccc3OCC2C1c1ccccc1)C1CCCNC1 (mixture of isomers) [Example 25, (3RS,3aRS)-8-Fluoro-3-phenyl-3a,4-dihydro-3H-chromeno[4,3-c]pyrazole-2-carboxylic acid (R)-methyl-piperidin-3-yl-amide and (3RS,3aRS)-8-Fluoro-3-phenyl-3a,4-dihydro-3H-chromeno[4,3-c]pyrazole-2-carboxylic acid (S)-methyl-piperidin-3-yl-amide] | ≤ 100 nM
15 | CCN(C)CCCN(C)C(=O)N1N=C2c3cc(F)ccc3OC[C@H]2[C@H]1c1ccccc1 (racemic) [Example 55, (3SR,3aSR)-8-Fluoro-3-phenyl-3a,4-dihydro-3H-chromeno[4,3-c]pyrazole-2-carboxylic acid [3-(ethyl-methyl-amino)-propyl]-methyl-amide] | ≤ 100 nM
16 | CN(CCN)C(=O)N1N=C2c3cc(F)ccc3OC[C@H]2[C@H]1c1ccccc1 (stereo in doubt) [Example 18a, (3SR,3aSR)-8-Fluoro-3-phenyl-3a,4-dihydro-3H-chromeno[4,3-c]pyrazole-2-carboxylic acid (2-amino-ethyl)-methyl-amide] | ≤ 100 nM
17 | CN(CCCN)C(=O)N1N=C2c3cc(F)ccc3OC[C@@H]2[C@@H]1c1ccccc1 (racemic) [Example 20, (3RS,3aRS)-8-Fluoro-3-phenyl-3a,4-dihydro-3H-chromeno[4,3-c]pyrazole-2-carboxylic acid (3-amino-propyl)-methyl-amide] | 100 to 1000 nM
18 | CN(C(=O)N1N=C2c3cc(F)ccc3OC[C@H]2[C@H]1c1ccccc1)C1CCNCC1 [Example 16a, (3S,3aS)-8-Fluoro-3-phenyl-3a,4-dihydro-3H-chromeno[4,3-c]pyrazole-2-carboxylic acid methyl-piperidin-4-yl-amide] | ≤ 100 nM
19 | CN(C)CCCN(C)C(=O)N1N=C2c3cc(F)ccc3OC[C@@H]2[C@@H]1c1cccc(O)c1 (racemic) [Example 6, (3RS,3aRS)-8-Fluoro-3-(3-hydroxy-phenyl)-3a,4-dihydro-3H-chromeno[4,3-c]pyrazole-2-carboxylic acid (3-dimethylamino-propyl)-methyl-amide] | ≤ 100 nM
20 | CCN(CC)CCCN(C)C(=O)N1N=C2c3cc(F)ccc3OC[C@H]2[C@H]1c1ccccc1 (racemic) [Example 46, (3SR,3aSR)-8-Fluoro-3-phenyl-3a,4-dihydro-3H-chromeno[4,3-c]pyrazole-2-carboxylic acid (3-diethylamino-propyl)-methyl-amide] | ≤ 100 nM
21 | CCN(CCOC)CCN(C)C(=O)N1N=C2c3cc(F)ccc3OC[C@H]2[C@H]1c1ccccc1 (racemic) [Example 57, (3SR,3aSR)-8-Fluoro-3-phenyl-3a,4-dihydro-3H-chromeno[4,3-c]pyrazole-2-carboxylic acid {2-[ethyl-(2-methoxy-ethyl)-amino]-ethyl}-methyl-amide] | 100 to 1000 nM
22 | COCCNCCCN(C)C(=O)N1N=C2c3cc(F)ccc3OC[C@H]2[C@H]1c1ccccc1 (racemic) [Example 48, (3SR,3aSR)-8-Fluoro-3-phenyl-3a,4-dihydro-3H-chromeno[4,3-c]pyrazole-2-carboxylic acid [3-(2-methoxy-ethylamino)-propyl]-methyl-amide] | ≤ 100 nM
23 | CN(CCCNC(C)(C)C)C(=O)N1N=C2c3cc(F)ccc3OC[C@H]2[C@H]1c1ccccc1 (racemic) [Example 43, (3SR,3aSR)-8-Fluoro-3-phenyl-3a,4-dihydro-3H-chromeno[4,3-c]pyrazole-2-carboxylic acid (3-tert-butylamino-propyl)-methyl-amide] | 100 to 1000 nM
24 | CN(C(=O)N1N=C2c3cc(F)ccc3OC[C@H]2[C@H]1c1cccc(O)c1)C1CCNCC1 [Example 27a, (3S,3aS)-8-Fluoro-3-(3-hydroxy-phenyl)-3a,4-dihydro-3H-chromeno[4,3-c]pyrazole-2-carboxylic acid methyl-piperidin-4-yl-amide] | ≤ 100 nM
25 | COCCNCCN(C)C(=O)N1N=C2c3cc(F)ccc3OC[C@H]2[C@H]1c1ccccc1 (racemic) [Example 47, (3SR,3aSR)-8-Fluoro-3-phenyl-3a,4-dihydro-3H-chromeno[4,3-c]pyrazole-2-carboxylic acid [2-(2-methoxy-ethylamino)-ethyl]-methyl-amide] | 100 to 1000 nM
26 | CC1CCN(CCCN(C)C(=O)N2N=C3c4cc(F)ccc4OC[C@H]3[C@H]2c2ccccc2)CC1 (racemic) [Example 66, (3SR,3aSR)-8-Fluoro-3-phenyl-3a,4-dihydro-3H-chromeno[4,3-c]pyrazole-2-carboxylic acid methyl-[3-(4-methyl-piperidin-1-yl)-propyl]-amide] | ≤ 100 nM
27 | C=CCN(C)CCN(C)C(=O)N1N=C2c3cc(F)ccc3OC[C@H]2[C@H]1c1ccccc1 (racemic) [Example 63, (3SR,3aSR)-8-Fluoro-3-phenyl-3a,4-dihydro-3H-chromeno[4,3-c]pyrazole-2-carboxylic acid [2-(allyl-methyl-amino)-ethyl]-methyl-amide] | 100 to 1000 nM
28 | CC(=O)N1CCN(CCN(C)C(=O)N2N=C3c4cc(F)ccc4OC[C@@H]3[C@@H]2c2ccccc2)CC1 (racemic) [Example 29, (3RS,3aRS)-8-Fluoro-3-phenyl-3a,4-dihydro-3H-chromeno[4,3-c]pyrazole-2-carboxylic acid [2-(4-acetyl-piperazin-1-yl)-ethyl]methyl-amide] | 100 to 1000 nM
29 | CN1CCC(N(C)C(=O)N2N=C3c4cc(F)ccc4OC[C@@H]3[C@@H]2c2cccc(O)c2)CC1 (single isomer, unassigned) [Example 3, (3RS,3aRS)-8-Fluoro-3-(3-hydroxy-phenyl)-3a,4-dihydro-3H-chromeno[4,3-c]pyrazole-2-carboxylic acid methyl-(1-methyl-piperidin-4-yl)-amide] | ≤ 100 nM
